Measurements from paper PMC12118597 (Science Advances, 2025).
Read-outs that look alike come from different tables or passages of the source.

Target: SARS-CoV-2 NSP3 macrodomain (Mac1) (Severe acute respiratory syndrome coronavirus 2, UniProt P0DTD1)
Assay type: binding
Settings: for 1-BDC: PanDDA background density correction factor; for PanDDA run, overall: Hit / PanDDA run, overall: Modeled: P43 crystal form; for Total number of conformations: ligand conformations modeled in the crystal structure; for 2*(1-BDC) (%): occupancy estimate from PanDDA; for Refined ligand occupancy (%): refined crystallographic occupancy
[1] = TRUE = crystal structure with ligand obtained
[2] = site of ligand in X-ray crystal structure
[3] = ligand-bound crystal structure obtained (TRUE)
[4] = site occupied in X-ray crystal structure
[5] = crystal soak 10 mM, TFA/DMSO background map

Row | SMILES | Occupancy difference (refined_occupancy - 2*(1-BDC)) | 1-BDC | X-ray crystal structure [1] | PanDDA run, overall: Hit (crystal soak 10 mM) | PanDDA run, overall: Modeled (crystal soak 10 mM) | PanDDA run, DMSO background map: 1-BDC (crystal soak 10 mM) | PanDDA run, DMSO background map: Hit (crystal soak 10 mM) | Total number of conformations | 2*(1-BDC) (%) | Refined ligand occupancy (%) | Binding site [2] | X-ray crystal structure [3] | Binding site [4] | PanDDA run, overall: Modeling comment (crystal soak 10 mM) | PanDDA run, TFA/DMSO background map: 1-BDC [5] | PanDDA run, TFA/DMSO background map: Hit [5] | Phe132 loop open state
1 | OCC(Nc1ncnc2[nH]ccc12)C1CCc2ccccc21 (stereo not shown) [AVI-3693] | 16 | 0.22 | TRUE | TRUE | TRUE | 0.22 | TRUE | 2 | 44 | 60 | Adenosine |  |  |  |  |  | 
2 | OCC(Cc1ccccn1)Nc1ncnc2[nH]ccc12 (stereo not shown) [AVI-3696] | 14 | 0.13 | TRUE | TRUE | TRUE | 0.13 | TRUE | 2 | 26 | 40 | Adenosine |  |  |  |  |  | 
3 | OCC(O)C1CCCN1c1ncnc2[nH]ccc12 (stereo not shown) [AVI-3701] | 0 | 0.18 |  | TRUE |  | 0.18 | TRUE | 1 | 36 | 36 |  | TRUE | Adenosine |  |  |  | 
4 | O=C(O)C(F)(F)F.OC[C@H]1CC2(CN1c1ncnc3[nH]ccc13)OCCO2 [AVI-3702] | 0 | 0.21 |  | TRUE |  | 0.21 | TRUE | 1 | 42 | 42 |  | TRUE | Adenosine |  |  |  | 
5 | OCC(Cc1cncs1)Nc1ncnc2[nH]ccc12 (stereo not shown) [AVI-3703] | 0 | 0.15 | TRUE | TRUE |  | 0.15 | TRUE | 1 | 30 | 30 | Adenosine |  |  |  |  |  | 
6 | OCC(Cc1ccoc1)Nc1ncnc2[nH]ccc12 (stereo not shown) [AVI-3705] | 0 | 0.21 | TRUE | TRUE |  | 0.21 | TRUE | 1 | 42 | 42 | Adenosine |  |  |  |  |  | 
7 | O=C(O)C(F)(F)F.OCC(Cc1cccc(F)c1)Nc1ncnc2[nH]ccc12 (stereo not shown) [AVI-3706] |  |  |  |  |  |  |  |  |  |  |  |  |  | TFA only |  |  | 
8 | OCC1CC2(CCOCC2)CN1c1ncnc2[nH]ccc12 (stereo not shown) [AVI-3707] | 0 | 0.21 |  | TRUE |  | 0.21 | TRUE | 1 | 42 | 42 |  | TRUE | Adenosine | Distal site, weak density, not modeled |  |  | 
9 | OCC(COCc1ccccc1)Nc1ncnc2[nH]ccc12 (stereo not shown) [AVI-3709] | 0 | 0.19 | TRUE | TRUE |  | 0.19 | TRUE | 2 | 38 | 38 | Adenosine |  |  |  |  |  | 
10 | O=C(O)C(F)(F)F.OC[C@@H]1CC2(CC2)CN1c1ncnc2[nH]ccc12 [AVI-3710] | 0 | 0.26 |  | TRUE |  | 0.26 | TRUE | 2 | 52 | 52 |  | TRUE | Adenosine | Weak density for open state of Phe132 loop |  |  | 
11 | OCC(Cc1cccs1)Nc1ncnc2[nH]ccc12 (stereo not shown) [AVI-3711] | 0 | 0.21 | TRUE | TRUE |  | 0.21 | TRUE | 1 | 42 | 42 | Adenosine |  |  |  |  |  | 
12 | O=C(O)C(F)(F)F.OCC1C2C=CC(C2)N1c1ncnc2[nH]ccc12 (stereo not shown) [AVI-3712] |  |  |  | TRUE |  | 0.15 | TRUE |  |  |  |  |  |  | Weak density, not modeled | 0.05 | TRUE | 
13 | CC(C)(C)C(O)CC(CO)Nc1ncnc2[nH]ccc12.O=C(O)C(F)(F)F (stereo not shown) [AVI-3714] |  |  |  |  |  |  |  |  |  |  |  |  |  | TFA only |  |  | 
14 | OCC(Nc1ncnc2[nH]ccc12)c1ccccc1 (stereo not shown) [AVI-3715] | 0 | 0.18 | TRUE | TRUE |  | 0.18 | TRUE | 1 | 36 | 36 | Adenosine |  |  |  |  |  | 
15 | OCC1COCCN1c1ncnc2[nH]ccc12 (stereo not shown) [AVI-3717] | 0 | 0.14 |  | TRUE |  | 0.14 | TRUE | 2 | 28 | 28 |  | TRUE | Adenosine |  |  |  | 
16 | CC(C)(C)C1CCC(CO)N(c2ncnc3[nH]ccc23)C1 (stereo not shown) [AVI-3719] | 0 | 0.08 |  | TRUE |  | 0.08 | TRUE | 1 | 16 | 16 |  | TRUE | Adenosine |  |  |  | TRUE
17 | CN1CCN(c2ncnc3[nH]ccc23)C(CO)C1 (stereo not shown) [AVI-3721] | 0 | 0.06 |  | TRUE |  | 0.06 | TRUE | 2 | 12 | 12 |  | TRUE | Adenosine |  |  |  | 
18 | CC(C)(C)[C@@H]1CCN(c2ncnc3[nH]ccc23)[C@H](CO)C1 [AVI-3722] | 0 | 0.11 |  | TRUE |  | 0.11 | TRUE | 1 | 22 | 22 |  | TRUE | Adenosine |  |  |  | 
